2 compounds from article PMC3725577 (Bioorganic & medicinal chemistry letters, 2011) can be followed below.

In series [1] the test system is HIV-1 NL4-3. Nature of the series: Single round HIV infectivity in HeLa37 cells. The class given is cell-based.
For series [2], the system named is HeLa37 cells. Nature of the series: Cell viability. The class given is cell-based. The conditions noted are these: concentrations as high as 100 µg/mL.

Entries after “also recorded” stand apart in the source; their conditions may differ.

On to `CC1(C)CCc2c(O)c(C(=O)CC(=O)c3ccccc3)c(O)c(C=O)c2O1` [Compound 12, 6-(1,3-Dioxo-3-phenylpropyl)-2,2-dimethyl-8-formylchroman-5,7-diol], for which the “anti-HIV activity (in words)” value in series [1] is “good activity”. In addition, the “cytotoxicity (in words)” value in series [2] is given as “highest cytotoxicity; also recorded: significant cytotoxicity at the higher concentrations tested”.
As for `CC(=O)c1c(O)c2c(c(C(C)=O)c1O)OC(C)(C)CC2` [Compound 6, 6,8-diacetyl-2,2-dimethylchroman-5,7-diol], the “anti-HIV activity (in words)” value in series [1] is given as “least active”.
